Numbering of substitutions follows the chain as printed. Where two headings read alike, the source gives them in different places.
What was measured:
[1] = biological target: T1, wild-type androgen receptor (AR) (Homo sapiens, UniProt P10275); test: AR binding inhibitory test (wild-type), radiolabeled mibolerone; settings: 100 nM compound, 3 nM radiolabeled mibolerone, 4° C. 3 hr, read-out: Inhibitory rate (%) at 100 nM wild-type
T1 sequence (P10275 1-920): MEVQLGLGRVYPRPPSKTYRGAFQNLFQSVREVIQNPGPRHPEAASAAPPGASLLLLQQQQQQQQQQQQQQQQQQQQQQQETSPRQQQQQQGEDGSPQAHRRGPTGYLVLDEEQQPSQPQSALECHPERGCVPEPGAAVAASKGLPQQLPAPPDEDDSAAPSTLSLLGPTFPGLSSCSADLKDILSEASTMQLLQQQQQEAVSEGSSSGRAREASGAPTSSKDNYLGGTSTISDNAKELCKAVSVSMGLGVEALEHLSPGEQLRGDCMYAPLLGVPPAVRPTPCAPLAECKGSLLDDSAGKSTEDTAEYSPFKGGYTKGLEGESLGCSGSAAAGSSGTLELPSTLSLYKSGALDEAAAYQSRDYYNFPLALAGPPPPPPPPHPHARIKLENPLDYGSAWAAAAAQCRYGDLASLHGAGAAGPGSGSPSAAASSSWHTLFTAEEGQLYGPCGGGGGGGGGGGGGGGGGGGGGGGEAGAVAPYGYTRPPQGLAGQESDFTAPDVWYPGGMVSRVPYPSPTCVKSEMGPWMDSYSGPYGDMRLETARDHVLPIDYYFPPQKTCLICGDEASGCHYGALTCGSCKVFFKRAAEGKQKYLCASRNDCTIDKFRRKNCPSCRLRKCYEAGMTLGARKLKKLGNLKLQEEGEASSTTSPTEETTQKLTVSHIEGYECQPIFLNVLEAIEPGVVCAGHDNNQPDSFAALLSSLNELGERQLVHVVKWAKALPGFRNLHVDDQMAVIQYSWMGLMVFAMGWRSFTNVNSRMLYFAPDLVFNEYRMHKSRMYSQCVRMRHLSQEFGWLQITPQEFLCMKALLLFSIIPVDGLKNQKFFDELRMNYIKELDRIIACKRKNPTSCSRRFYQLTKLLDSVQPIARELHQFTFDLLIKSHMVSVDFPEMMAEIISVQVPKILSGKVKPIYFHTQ
Experimental: (§1) To a solution containing a wild-type androgen receptor (AR) or AR having LNCaP-type mutation were added 3 nM radiolabeled mibolerone and 100 nM compound. After the solution was incubated at 4° C. for 3 hr, B (Bound)/F (Free) separation was performed by the dextran/charcoal method. The label count of B was measured, and the inhibitory rate of the compound was calculated.

[2] = biological target: T2, AR having LNCaP-type mutation (Homo sapiens, UniProt P10275, T878A); test: AR binding inhibitory test (LNCaP-type), radiolabeled mibolerone; settings: 100 nM compound, 3 nM radiolabeled mibolerone, 4° C. 3 hr
T2 sequence (P10275 1-920 T878A): T1 sequence (P10275 1-920) with T878A
Experimental: as §1

AR (wild-type) [3] = biological target: T3, AR (wild-type) (Homo sapiens, UniProt P10275); test: Reporter assay system using Cos7 cell, luciferase under androgen responsive promoter of two tandem PSA promoter regions; assay type: cell-based; settings: 100 nM compound, 24 hr, luciferase activity with 1 μM 5α-dihydrotestosterone as 100
T3 construct: expressed in transfected cells; host or cells: Cos-7
T3 sequence (P10275 1-920): T1 sequence (P10275 1-920)
Experimental: Cos-7 (5,000,000 cells) were sown in a flask (150 cm^2), and cultured in a culture medium (DMEM medium containing 10% Dextran Charcoal (DCC)-Fetal Bovine Serum (FBS) and 2 mM glutamine) for 24 hr. A vector DNA containing AR gene, and a vector DNA prepared by binging luciferase gene at the downstream of an androgen responsive promoter prepared by ligating two PSA promoter regions in tandem were co-transfected by the liposome method. After culture for 2 hr, the cells were harvested, 10,000 cells were plated on a 96 well plate and cultured for 3 hr, after which 1 μM of 5α-dihydrotestosterone or 100 nM of a compound was added thereto. After culture for 24 hr, luciferase activity was determined. The induction rate by the compound was determined with the luciferase activity induced by addition of 1 μM of 5α-dihydrotestosterone as 100.

[4] = tested on: human prostate cancer cell line LNCaP-FGC; test: PSA production test in human prostate cancer cell line; assay type: cell-based; settings: 3 days, vehicle as 0, 350 nM testosterone as 100, test compound final concentration 0.1-1000 nM (concentration not given)
Experimental: The human prostate cancer cell line LNCaP-FGC was plated on a 96 well plate at 5,000 cells/100 μL/well. The next day, a test compound (final concentration 0.1-1000 nM), or a vehicle (control) or testosterone (final concentration 0.35-350 nM) was added thereto, and the culture supernatant was recovered 3 days after the drug addition. The concentration of PSA (Prostate Specific Antigen) produced in an androgen-dependent manner in the culture supernatant was measured by ELISA. The PSA production promotion rate by the test compound was calculated with vehicle addition group as 0 and 350 nM testosterone addition group as 100.

AR (wild-type) [5] = biological target: T3, AR (wild-type); test: Reporter assay system using Cos7 cell, luciferase under MMTV-derived androgen responsive promoter; assay type: cell-based; settings: 100 nM compound, 24 hr, luciferase activity with 1 μM 5α-dihydrotestosterone as 100
Experimental: Cos-7 (5,000,000 cells) were sown in a flask (150 cm^2), and cultured in a culture medium (DMEM medium containing 10% Dextran Charcoal (DCC)-Fetal Bovine Serum (FBS) and 2 mM glutamine) for 24 hr. A vector DNA containing AR gene, and a vector DNA prepared by binging luciferase gene at the downstream of an MMTV (Mouse Mammary Tumor Virus)-derived androgen responsive promoter were co-transfected by the liposome method. After culture for 2 hr, the cells were harvested, 10,000 cells were plated on a 96 well plate and cultured for 3 hr, after which 1 μM of 5α-dihydrotestosterone or 100 nM of a compound was added. After culture for 24 hr, luciferase activity was determined. The induction rate by the compound was determined with the luciferase activity induced by addition of 1 μM of 5α-dihydrotestosterone as 100.

[6] = Table 3, read-out: Inhibitory rate (%) at 100 nM LNCaP-type
[7] = Table 6, read-out: Inhibitory rate (%) at 100 nM LNcap-type

SMILES | inhibition at 0.1 µM ([1]; Table 3) | inhibition at 0.1 µM [2, 6] | Induction rate (%) at 100 nM wild-type (AR (wild-type) [3]) | PSA production promotion rate (%) [4] | inhibition at 0.1 µM ([1]; Table 6) | inhibition at 0.1 µM [2, 7] | Induction rate (%) at 100 nM wild-type (AR (wild-type) [5])
Cc1c(N2CC[C@H](C(C)(C)O)[C@@H]2C)ccc(C#N)c1Cl [Compound 2, 2-chloro-4-[(2S,3S)-3-(1-hydroxy-1-methylethyl)-2-methylpyrrolidin-1-yl]-3-methylbenzonitrile] | 99% | 99% | 71% | 103% |  |  | 
C[C@H]1[C@@H](C(C)(C)O)CCN1c1ccc(C#N)c(Cl)c1 [Compound 3, 2-chloro-4-[(2S,3S)-3-(1-hydroxy-1-methylethyl)-2-methylpyrrolidin-1-yl]benzonitrile] | 98% | 99% | 57% | 81% |  |  | 
C[C@H]1[C@@H](C(C)(C)O)CCN1c1ccc(C#N)c(Cl)c1F [Compound 53, 2-chloro-3-fluoro-4-[(2S,3S)-3-(1-hydroxy-1-methylethyl)-2-methylpyrrolidin-1-yl]benzonitrile] |  |  |  |  | 98% | 98% | 33%
C[C@H]1[C@@H](C(C)(C)O)CCN1c1ccc(C#N)c(Br)c1 [Compound 71, 2-bromo-4-[(2S,3S)-3-(1-hydroxy-1-methylethyl)-2-methylpyrrolidin-1-yl]benzonitrile] |  |  |  |  | 99% | 97% | 31%
C[C@H]1[C@@H](C(C)(C)O)CCN1c1ccc(C#N)c(Cl)c1Cl [Compound 75, 2,3-dichloro-4-[(2S,3S)-3-(1-hydroxy-1-methylethyl)-2-methylpyrrolidin-1-yl]benzonitrile] |  |  |  |  | 99% | 99% | 60%
C[C@H]1[C@@H](C(C)(C)O)CCN1c1ccc(C#N)cc1C(F)(F)F [Compound 80, 4-[(2S,3S)-3-(1-hydroxy-1-methylethyl)-2-methylpyrrolidin-1-yl]-3-(trifluoromethyl)benzonitrile] |  |  |  |  | 97% | 95% | 22%
CC(C)[C@H]1[C@@H](O)CCN1c1ccc(C#N)c(C(F)(F)F)c1 [Compound 82, 4-[(2S,3S)-3-hydroxy-2-isopropylpyrrolidin-1-yl]-2-(trifluoromethyl)benzonitrile] |  |  |  |  | 98% | 97% | 90%

— patent US8592452B2, “Cyclic amine compound” (Takeda Pharmaceutical Company Limited, priority 2005, dated 2013)
